Reference: patent US9023894B2, “Synergistic combinations comprising a renin inhibitor for cardiovascular diseases” (priority 2000, dated 2015)
“Also recorded” adds a separate entry of the source.

Columns and labels:
[1] = system: normotensive rats; settings: Ang II at 1 mg/kg, after treatment; cited from earlier work
[2] = system: SHR with endothelial dysfunction; assay: Endothelial dysfunction test: SHR treated with the NO synthesis inhibitor L-NAME for 12 weeks; assay type: in vivo, rat; settings: for proteinuria / kidney lesions: low doses; for proteinuria / survival rates: drugs in drinking fluid; for kidney lesions: kidney sections; for survival rates: low, non-blood pressure reducing doses
Description: Male 20-24 week-old SHR, purchased from RCC Ldt (Fullingsdorf, Switzerland), are maintained in a temperature- and light-controlled room with free access to rat chow (Nafag 9331, Gossau, Switzerland) and tap water. The experiment is performed in accordance with the NIH guidelines and approved by the Canton Veterinary office (Bew 161, Kantonales Veterinäramt, Liestal, Switzerland). All rats are treated with the NO synthesis inhibitor L-NAME (Sigma Chemicals) administered in drinking water (50 mg/l) for 12 weeks. The average daily dose of L-NAME calculated from the water consumed was 2.5 mg/kg/d (range 2.1-2.7).
The rats can be divided into 5 groups: group 1, control (n=40); Group 2, the compound of formula (I) in form of the hemi-fumarate (ren1; n=40); Group 3, enalapril (ena1; n=30); Group 4, a combination (ena1ren1) of enalapril and the compound of formula (I) in form of the hemi-fumarate; (n=30) and Group 5, the compound of formula (I) in form of the hemi-fumarate (ren2—higher dose; n=30). The drugs are administered in drinking fluid.
Body weight is measured every week. Systolic blood pressure and heart rate are recorded by tail cuff plethysmography 3 and 2 weeks before starting the study and at 2 weeks after drug administration. Urine is collected over a 24 hour period from rats kept in individual (metabolic) cages the week before starting treatment and at weeks 4 and 12 for volume measurement and protein, creatinine, sodium and potassium determination using standard laboratory methods. At the same time points, blood samples are withdrawn from the retro-orbital plexus (maximum 1 ml) for creatinine, Na^+ and K^+ assays.
Ten rats from each group are sacrificed at 4 weeks for collection of kidney and heart for morphological analysis. The remaining rats are sacrificed at 12 weeks. Cardiac and kidney weight is recorded. Terminal blood sampling is performed in 5% EDTA at 4 (morphometry study) and 12 (end of the study) weeks for aldosterone, determination by radioimmunoassay using a DPC coat-a-count aldosterone-RIA kit (Bühlmann, Switzerland).
All data are expressed as mean±SEM. Statistical analysis is performed using a one-way ANOVA, followed by a Duncan's multiple range test and a Newman-Keuls test, 7 for comparison between the different groups. Results with a probability value of less than 0.05 are deemed statistically significant.

## COCCCOc1cc(C[C@@H](C[C@H](N)[C@@H](O)C[C@H](C(=O)NCC(C)(C)C(N)=O)C(C)C)C(C)C)ccc1OC [2(S),4(S),5(S),7(S)—N-(3-amino-2,2-dimethyl-3-oxopropyl)-2,7-di(1-methylethyl)-4-hydroxy-5-amino-8-[4-methoxy-3-(3-methoxy-propoxy)phenyl]-octanamide]
[1]
  pressor effect of Ang II: can be reducted
[2]
  proteinuria: no decrease in proteinuria
  kidney lesions: no reduction of kidney lesions
  survival rates: significant improvements in survival rates
[2]; listed as renin inhibitor of formula (I)
  survival rates: improved survival

## CCOC(=O)[C@H](CCc1ccccc1)N[C@@H](C)C(=O)N1CCC[C@H]1C(=O)O [enalapril, reference compound]
[2]
  proteinuria: no decrease in proteinuria
  kidney lesions: no reduction of kidney lesions
  survival rates: improved survival; also recorded: significant improvements in survival rates
